In US10023602B2, “Hamamelitannin analogues and uses thereof” (Universiteit Gent, priority 2014, dated 2018):

Columns and labels:
[1] = test system: methicillin resistant S. aureus Mu50 strain (S. aureus ATCC700699) biofilm; assay: Biofilm susceptibility to vancomycin, pre-treatment regimen (biofilm formed in presence of compound, then vancomycin); assay type: cell-based; settings: for Pretreat (100 μM): percentage Colony Forming Units (CFU's) per biofilm: compound 100 μM during biofilm formation; for Pretreat (100 μM): percentage Colony Forming Units (CFU's) per biofilm / Pretreat. (25 μM): percentage Colony Forming Units (CFU's) per biofilm: then VAN 20 μg/ml, compared to the untreated (negative) control; for Pretreat. (25 μM): percentage Colony Forming Units (CFU's) per biofilm: compound 25 μM during biofilm formation; for EC50: concentration needed to get 50% killing compared to antibiotic alone (VAN 20 μg/ml) and complete killing, read-out: Pretreat. (EC50)
Protocol: (§1) The compounds were evaluated for their effect on biofilm susceptibility both under pre-treatment and combination treatment regimens. In the pre-treatment regimen, a methicillin resistant S. aureus Mu50 strain (S. aureus ATCC700699) was allowed to form biofilms in the presence of the compounds after which the biofilm was treated with vancomycin (20 μg/ml). In the combination treatment regimen, S. aureus Mu50 was allowed to form a mature biofilm after which it was treated with a combination of a compound and vancomycin. In brief, 100 μl of a standardized inoculum (10^8 CFU/ml) was placed in the wells of a round-bottom 96-well microtiter plate. The cells were allowed to adhere to the plate in the absence (combined treatment) or presence (pre-treatment) of the compounds (0.1-250 μM) for 4 h at 37° C. After this adhesion step, non-adhered cells were removed, the wells were rinsed and fresh medium with or without the compounds was added. The plates were incubated for an additional 20 h at 37° C. After this, the medium was removed, biofilms were rinsed with physiological saline and vancomycin (20 μg/ml) was added alone (pre-treatment) or with the compounds (combined treatment, 0.1-250 μM). Plates were placed at 37° C. for 24 h after which medium was removed, wells were rinsed and the surviving cells in each condition were collected. The number of surviving cells under each condition was compared to vancomycin treatment alone and was assessed by conventional plating. The REF compound (hamamelitannin) was also observed for its effect on biofilm susceptibility towards other antibiotics (incl. vancomycin, cefoxitin, tobramycin, cefazolin, cefalonium, daptomycin, linezolide and cephalexin). Biofilms were formed as described above and were treated with the antibiotics alone or in combination with the REF compound (250 μM). The number of surviving cells under each condition was compared to the untreated control biofilm and was assessed by conventional plating.

[2] = test system: methicillin resistant S. aureus Mu50 strain (S. aureus ATCC700699) biofilm; assay: Biofilm susceptibility to vancomycin, combination treatment regimen (mature biofilm treated with compound plus vancomycin); assay type: cell-based; settings: for Combin. (100 μM): percentage Colony Forming Units (CFU's) per biofilm: compound 100 μM together with VAN 20 μg/ml on mature biofilm; for Combin. (100 μM): percentage Colony Forming Units (CFU's) per biofilm / Combin. (25 μM): percentage Colony Forming Units (CFU's) per biofilm: compared to the untreated (negative) control; for Combin. (25 μM): percentage Colony Forming Units (CFU's) per biofilm: compound 25 μM together with VAN 20 μg/ml on mature biofilm; for EC50: concentration needed to get 50% killing compared to antibiotic alone (VAN 20 μg/ml) and complete killing, read-out: Combin. (EC50)
Protocol: as §1

Row | SMILES | Pretreat (100 μM): percentage Colony Forming Units (CFU's) per biofilm [1] | Combin. (100 μM): percentage Colony Forming Units (CFU's) per biofilm [2] | Pretreat. (25 μM): percentage Colony Forming Units (CFU's) per biofilm [1] | Combin. (25 μM): percentage Colony Forming Units (CFU's) per biofilm [2] | EC50 [1] | EC50 [2]
1 | O=C(NC[C@]1(O)CO[C@H](CN2C(=O)c3ccc(Cl)cc3C2=O)[C@H]1O)c1ccccc1 [compound 227, N-(((3S,4R,5R)-5-((5-chloro-1,3-dioxoisoindolin-2-yl)methyl)-3,4-dihydroxytetrahydrofuran-3-yl)methyl)benzamide] | 77.57 percentage | 61.81 percentage |  |  |  | 
2 | N#Cc1cccc(C(=O)NC[C@H]2OC[C@@](O)(CNC(=O)c3ccccc3)[C@@H]2O)c1 [compound 164, N-(((2R,3R,4S)-4-(benzamidomethyl)-3,4-dihydroxytetrahydrofuran-2-yl)methyl)-3-cyanobenzamide] | 22.11 percentage | 14.49 percentage |  |  |  | 
3 | N#Cc1ccc(C(=O)NC[C@]2(O)CO[C@H](CNC(=O)c3ccccc3Cl)[C@H]2O)cc1 [compound 236, 2-chloro-N-(((2R,3R,4S)-4-((4-cyanobenzamido)methyl)-3,4-dihydroxytetrahydrofuran-2-yl)methyl)benzamide] |  |  | 73.00 percentage | 70.73 percentage |  | 
4 | O=C(NC[C@H]1OC[C@@](O)(CN2C(=O)c3ccccc3C2=O)[C@@H]1O)c1ccccc1Cl [compound 231, 2-chloro-N-(((2R,3R,4S)-4-((1,3-dioxoisoindolin-2-yl)methyl)-3,4-dihydroxytetrahydrofuran-2-yl)methyl)benzamide] | 8.18 percentage | 28.85 percentage |  |  | 2.63 µM | 39 µM
5 | O=C(NC[C@]1(O)CO[C@H](CNC(=O)c2c(Cl)cccc2Cl)[C@H]1O)c1ccccc1 [compound 192, N-(((2R,3R,4S)-4-(benzamidomethyl)-3,4-dihydroxytetrahydrofuran-2-yl)methyl)-2,6-dichlorobenzamide] | 31.41 percentage | 43.74 percentage |  |  | 59.2 µM | 136 µM
6 | O=C(NC[C@]1(O)CO[C@H](CNC(=O)c2ccccc2-c2ccccc2)[C@H]1O)c1ccccc1 [compound 177, N-(((2R,3R,4S)-4-(benzamidomethyl)-3,4-dihydroxytetrahydrofuran-2-yl)methyl)-[1,1′-biphenyl]-2-carboxamide] | 15.07 percentage | 13.23 percentage |  |  |  | 
7 | O=C(CCc1ccccc1)NC[C@]1(O)CO[C@H](CNC(=O)c2ccccc2Cl)[C@H]1O [compound 260, 2-chloro-N-(((2R,3R,4S)-3,4-dihydroxy-4-((3-phenylpropanamido)methyl)tetrahydrofuran-2-yl)methyl)benzamide] | 57.01 percentage | 71.12 percentage |  |  |  | 
8 | Cn1nccc1C(=O)NC[C@H]1OC[C@@](O)(CNC(=O)c2ccccc2)[C@@H]1O [compound 209, N-(((2R,3R,4S)-4-(benzamidomethyl)-3,4-dihydroxytetrahydrofuran-2-yl)methyl)-1-methyl-1H-pyrazole-5-carboxamide] | 22.47 percentage | 21.74 percentage |  |  | 29.3 µM | 23.5 µM
9 | O=C(NC[C@]1(O)CO[C@H](CNC(=O)c2ccccc2Cl)[C@H]1O)c1ccc(Cl)cc1 [compound 234, 2-chloro-N-(((2R,3R,4S)-4-((4-chlorobenzamido)methyl)-3,4-dihydroxytetrahydrofuran-2-yl)methyl)benzamide] |  |  | 61.12 percentage | 56.96 percentage |  | 
10 | O=C(NC[C@]1(O)CO[C@H](CNC(=O)c2ccc(Cl)cc2Cl)[C@H]1O)c1ccccc1 [compound 193, N-(((2R,3R,4S)-4-(benzamidomethyl)-3,4-dihydroxytetrahydrofuran-2-yl)methyl)-2,4-dichlorobenzamide] | 10.80 percentage | 11.25 percentage |  |  | 11.4 µM | 11.7 µM
11 | O=C(NC[C@@H]1OC[C@@](O)(CNC(=O)c2ccccc2)[C@@H]1O)c1ccccc1 [compound 270, N,N′-(((2S,3R,4S)-3,4-dihydroxytetrahydrofuran-2,4-diyl)bis(methylene))dibenzamide] | 51.80 percentage | 55.70 percentage |  |  | 224 µM | > 250 µM
12 | O=C(NC[C@]1(O)CO[C@H](CNC(=O)c2ccccc2Cl)[C@H]1O)c1ccnnc1 [compound 255, N-(((3S,4R,5R)-5-((2-chlorobenzamido)methyl)-3,4-dihydroxytetrahydrofuran-3-yl)methyl)pyridazine-4-carboxamide] | 8.03 percentage | 25.78 percentage |  |  | 15 µM | 55.7 µM
13 | O=C(NC[C@]1(O)CO[C@H](CNC(=O)c2ccccc2Cl)[C@H]1O)c1cccc(F)c1 [compound 240, 2-chloro-N-(((2R,3R,4S)-4-((3-fluorobenzamido)methyl)-3,4-dihydroxytetrahydrofuran-2-yl)methyl)benzamide] |  |  | 118.37 percentage | 91.32 percentage |  | 
14 | COc1ccc(C(=O)NC[C@]2(O)CO[C@H](CNC(=O)c3ccccc3Cl)[C@H]2O)cc1 [compound 235, 2-chloro-N-(((2R,3R,4S)-3,4-dihydroxy-4-((4-methoxybenzamido)methyl)tetrahydrofuran-2-yl)methyl)benzamide] |  |  | 66.10 percentage | 57.35 percentage |  | 
15 | Cc1cccc(C(=O)NC[C@H]2OC[C@@](O)(CNC(=O)c3ccccc3)[C@@H]2O)c1 [compound 160, N-(((2R,3R,4S)-4-(benzamidomethyl)-3,4-dihydroxytetrahydrofuran-2-yl)methyl)-3-methylbenzamide] | 23.09 percentage | 23.39 percentage |  |  |  | 
16 | O=C(NC[C@H]1OC[C@@](O)(CNC(=O)c2ccccc2)[C@@H]1O)c1ccc2ccccc2c1 [compound 185, N-(((2R,3R,4S)-4-(benzamidomethyl)-3,4-dihydroxytetrahydrofuran-2-yl)methyl)-2-naphthamide] | 22.11 percentage | 36.32 percentage |  |  |  | 
17 | O=C(NC[C@]1(O)CO[C@H](CNS(=O)(=O)c2ccccc2-c2ccccc2)[C@H]1O)c1ccccc1 [compound 220, N-(((3S,4R,5R)-5-(([1,1′-biphenyl]-2-sulfonamido)methyl)-3,4-dihydroxytetrahydrofuran-3-yl)methyl)benzamide] | 25.63 percentage | 29.85 percentage |  |  |  | 
18 | COc1ccc(C(=O)NC[C@H]2OC[C@@](O)(CNC(=O)c3ccccc3)[C@@H]2O)cc1 [compound 154, N-(((2R,3R,4S)-4-(benzamidomethyl)-3,4-dihydroxytetrahydrofuran-2-yl)methyl)-4-methoxybenzamide] | 19.34 percentage | 22.56 percentage |  |  |  | 
19 | CCS(=O)(=O)NC[C@H]1OC[C@@](O)(CNC(=O)c2ccccc2)[C@@H]1O [compound 212, N-(((3S,4R,5R)-5-(ethylsulfonamidomethyl)-3,4-dihydroxytetrahydrofuran-3-yl)methyl)benzamide] | 50.68 percentage | 52.64 percentage |  |  |  | 
20 | O=C(NC[C@]1(O)CO[C@H](CNC(=O)c2c(Cl)ccnc2Cl)[C@H]1O)c1ccccc1 [compound 196, N-(((2R,3R,4S)-4-(benzamidomethyl)-3,4-dihydroxytetrahydrofuran-2-yl)methyl)-2,4-dichloronicotinamide] | 21.86 percentage | 8.072 percentage |  |  | 13 µM | 7.88 µM
